Laboratory results published in ChEMBL document CHEMBL5532664, “Discovery, Optimization, and Evaluation of Potent and Selective DNA-PK Inhibitors in Combination with Chemotherapy or Radiotherapy for the Treatment of Malignancies” (J Med Chem, 2024).
One block for each compound: values may come before it. The source made the active and inactive calls. The calls are words filed in the database; no cut-off is given here.

Columns and labels:
[1] = tested on: A549; experiment: Antitumor activity against human A549 cells xenografted in BALB/c nude mouse assessed as inhibition of tumor growth at 10 mg/kg, iv administered thrice measured upto 26 days by vernier caliper analysis; assay type: functional, organism-based; conditions: time <= 26.0 day
[2] = tested on: HCT-116; experiment: Inhibition of colony formation in human HCT-116 cells at […] preincubated with compound for 1 hr followed by exposure to 2 Gy gamma irradiation and measured after 7 days by crystal violet staining based chemiluminescence assay relative to control; assay type: functional; conditions: HCT-116, light or radiation study, dose 0.25 µM, time 169 hrs
[3] = tested on: HCT-116; experiment: Inhibition of colony formation in human HCT-116 cells preincubated with compound for 1 hr followed by exposure to 2 Gy gamma irradiation and measured after 7 days by crystal violet staining based chemiluminescence assay; assay type: functional, cell-based; conditions: HCT-116, light or radiation study
[4] = target: DNA-dependent protein kinase catalytic subunit (Homo sapiens, UniProt P78527)
Description: Inhibition of human DNA-PK incubated for 30 mins in presence of Mg/ATP by HTRF method

[5] = in vivo; conditions: Sprague-Dawley, rat, po, 5 mg/kg
[6] = in vivo; conditions: Sprague-Dawley, rat, iv, 5 mg/kg
[7] = in vivo; conditions: Sprague-Dawley, rat, plasma, po, 5 mg/kg
Description: Clearance in Sprague-Dawley rat plasma at 5 mg/kg, po measured upto 24 hrs by LC-MS/MS analysis

[8] = in vivo; conditions: Sprague-Dawley, rat, plasma, iv, 5 mg/kg
Description: Clearance in Sprague-Dawley rat plasma at 5 mg/kg, iv measured upto 24 hrs by LC-MS/MS analysis

[9] = in vivo; conditions: Sprague-Dawley, rat, po, 5 mg/kg; remark: listed apart in the source
[10] = in vivo; conditions: Sprague-Dawley, rat, iv, 5 mg/kg; remark: listed apart in the source
[11] = in vivo; conditions: Sprague-Dawley, rat, po, 5 mg/kg; remark: listed apart in the source
[12] = in vivo; conditions: Sprague-Dawley, rat, iv, 5 mg/kg; remark: listed apart in the source
[13] = in vivo; conditions: Sprague-Dawley, rat, po, 5 mg/kg; remark: listed apart in the source
[14] = in vitro; conditions: human, liver microsomes
[15] = target: hERG (KCNH2) (Homo sapiens, UniProt Q12809); experiment: in vitro
hERG (KCNH2), sequence (Q12809 whole entry): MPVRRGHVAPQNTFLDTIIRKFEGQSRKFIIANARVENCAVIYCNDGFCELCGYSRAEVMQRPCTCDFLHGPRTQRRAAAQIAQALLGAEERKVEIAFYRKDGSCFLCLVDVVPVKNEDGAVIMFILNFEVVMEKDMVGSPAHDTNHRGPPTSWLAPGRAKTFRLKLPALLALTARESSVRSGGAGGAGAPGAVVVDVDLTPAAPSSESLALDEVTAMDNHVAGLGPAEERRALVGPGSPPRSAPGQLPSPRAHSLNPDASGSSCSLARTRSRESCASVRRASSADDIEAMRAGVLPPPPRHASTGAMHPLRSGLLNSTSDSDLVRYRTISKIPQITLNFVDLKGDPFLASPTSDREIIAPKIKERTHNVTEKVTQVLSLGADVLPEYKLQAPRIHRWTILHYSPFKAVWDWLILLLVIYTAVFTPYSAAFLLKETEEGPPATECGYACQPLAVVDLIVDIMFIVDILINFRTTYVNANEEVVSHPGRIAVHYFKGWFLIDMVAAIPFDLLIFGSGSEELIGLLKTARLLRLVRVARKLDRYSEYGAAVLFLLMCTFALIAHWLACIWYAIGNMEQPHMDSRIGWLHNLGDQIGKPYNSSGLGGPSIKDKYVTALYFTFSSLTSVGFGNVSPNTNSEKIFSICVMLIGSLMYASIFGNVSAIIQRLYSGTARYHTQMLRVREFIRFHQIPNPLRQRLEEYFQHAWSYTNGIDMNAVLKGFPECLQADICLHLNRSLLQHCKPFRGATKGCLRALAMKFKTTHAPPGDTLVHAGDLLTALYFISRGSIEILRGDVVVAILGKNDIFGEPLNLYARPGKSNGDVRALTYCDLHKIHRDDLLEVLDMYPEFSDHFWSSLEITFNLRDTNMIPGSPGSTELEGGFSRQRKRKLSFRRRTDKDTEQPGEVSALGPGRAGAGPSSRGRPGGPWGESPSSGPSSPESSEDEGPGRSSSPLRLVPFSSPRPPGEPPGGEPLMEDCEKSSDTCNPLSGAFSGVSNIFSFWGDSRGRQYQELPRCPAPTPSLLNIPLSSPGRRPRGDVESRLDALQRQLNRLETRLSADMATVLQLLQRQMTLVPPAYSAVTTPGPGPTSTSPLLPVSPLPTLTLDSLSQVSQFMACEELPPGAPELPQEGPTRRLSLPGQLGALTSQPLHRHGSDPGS
Description: Inhibition of human ERG at 20 uM relative to control

[16] = tested on: HCT-116; experiment: Inhibition of bleomycin-induced DNA-double stranded breaks in human HCT-116 cells assessed as reduction in gammaH2AX level pretreated for 1 hrs followed by bleomycin addition and measured after 6 hrs Western blot analysis; assay type: functional, cell-based; conditions: dose 0.03-30 µM, time 7.0 hrs
[17] = tested on: HCT-116; experiment: Induction of cell cycle arrest in human HCT-116 cells assessed as accumulation of cells G0/G1 phase at 250 nM (reference value: 66.45%); assay type: functional
[18] = tested on: HCT-116; experiment: Induction of cell cycle arrest in human HCT-116 cells assessed as accumulation of cells G0/G1 phase at 500 nM (reference value: 66.45%); assay type: functional
[19] = tested on: HCT-116; experiment: Induction of cell cycle arrest in human HCT-116 cells assessed as accumulation of cells G0/G1 phase at 1000 nM (reference value: 66.45%); assay type: functional
[20] = tested on: HCT-116; experiment: Induction of cell cycle arrest in human HCT-116 cells assessed as accumulation of cells G0/G1 phase at 2000 nM (reference value: 66.45%); assay type: functional
[21] = tested on: HCT-116; experiment: Induction of cell cycle arrest in human HCT-116 cells assessed as accumulation of cells G2/M phase at 250 nM (reference value: […]%); assay type: functional
[22] = tested on: HCT-116; experiment: Induction of cell cycle arrest in human HCT-116 cells assessed as accumulation of cells G2/M phase at 500 nM (reference value: […]%); assay type: functional
[23] = tested on: HCT-116; experiment: Induction of cell cycle arrest in human HCT-116 cells assessed as accumulation of cells G2/M phase at 1000 nM (reference value: […]%); assay type: functional
[24] = tested on: HCT-116; experiment: Induction of cell cycle arrest in human HCT-116 cells assessed as accumulation of cells G2/M phase at 2000 nM (reference value: […]%); assay type: functional
[25] = tested on: HCT-116; experiment: Induction of cell cycle arrest in human HCT-116 cells assessed as accumulation of cells S phase at 250 nM (reference value: 19.72%); assay type: functional
[26] = tested on: HCT-116; experiment: Induction of cell cycle arrest in human HCT-116 cells assessed as accumulation of cells S phase at 500 nM (reference value: 19.72%); assay type: functional
[27] = tested on: HCT-116; experiment: Induction of cell cycle arrest in human HCT-116 cells assessed as accumulation of cells S phase at 1000 nM (reference value: 19.72%); assay type: functional
[28] = tested on: HCT-116; experiment: Induction of cell cycle arrest in human HCT-116 cells assessed as accumulation of cells S phase at 2000 nM (reference value: 19.72%); assay type: functional
[29] = tested on: HCT-116; experiment: Induction of cell cycle arrest in human HCT-116 cells assessed as accumulation of cells G0/G1 phase at 250 nM incubated for 1 hr followed by exposure to 2 Gy gamma irradiation and measured after 48 hrs propidium iodide staining based analysis (reference value: 60.01%); assay type: functional; conditions: time 49 hrs
[30] = tested on: HCT-116; experiment: Induction of cell cycle arrest in human HCT-116 cells assessed as accumulation of cells G0/G1 phase at 500 nM incubated for 1 hr followed by exposure to 2 Gy gamma irradiation and measured after 48 hrs propidium iodide staining based analysis (reference value: 60.01%); assay type: functional; conditions: time 49 hrs
[31] = tested on: HCT-116; experiment: Induction of cell cycle arrest in human HCT-116 cells assessed as accumulation of cells G0/G1 phase at 1000 nM incubated for 1 hr followed by exposure to 2 Gy gamma irradiation and measured after 48 hrs propidium iodide staining based analysis (reference value: 60.01%); assay type: functional; conditions: time 49 hrs
[32] = tested on: HCT-116; experiment: Induction of cell cycle arrest in human HCT-116 cells assessed as accumulation of cells G0/G1 phase at 2000 nM incubated for 1 hr followed by exposure to 2 Gy gamma irradiation and measured after 48 hrs propidium iodide staining based analysis (reference value: 60.01%); assay type: functional; conditions: time 49 hrs
[33] = tested on: HCT-116; experiment: Induction of cell cycle arrest in human HCT-116 cells assessed as accumulation of cells G2/M phase at 250 nM incubated for 1 hr followed by exposure to 2 Gy gamma irradiation and measured after 48 hrs propidium iodide staining based analysis (reference value: 18.65%); assay type: functional; conditions: time 49 hrs
[34] = tested on: HCT-116; experiment: Induction of cell cycle arrest in human HCT-116 cells assessed as accumulation of cells G2/M phase at 500 nM incubated for 1 hr followed by exposure to 2 Gy gamma irradiation and measured after 48 hrs propidium iodide staining based analysis (reference value: 18.65%); assay type: functional; conditions: time 49 hrs
[35] = tested on: HCT-116; experiment: Induction of cell cycle arrest in human HCT-116 cells assessed as accumulation of cells G2/M phase at 1000 nM incubated for 1 hr followed by exposure to 2 Gy gamma irradiation and measured after 48 hrs propidium iodide staining based analysis (reference value: 18.65%); assay type: functional; conditions: time 49 hrs
[36] = tested on: HCT-116; experiment: Induction of cell cycle arrest in human HCT-116 cells assessed as accumulation of cells G2/M phase at 2000 nM incubated for 1 hr followed by exposure to 2 Gy gamma irradiation and measured after 48 hrs propidium iodide staining based analysis (reference value: 18.65%); assay type: functional; conditions: time 49 hrs
[37] = tested on: HCT-116; experiment: Induction of cell cycle arrest in human HCT-116 cells assessed as accumulation of cells S phase at 250 nM incubated for 1 hr followed by exposure to 2 Gy gamma irradiation and measured after 48 hrs propidium iodide staining based analysis (reference value: 21.35%); assay type: functional; conditions: time 49 hrs
[38] = tested on: HCT-116; experiment: Induction of cell cycle arrest in human HCT-116 cells assessed as accumulation of cells S phase at 500 nM incubated for 1 hr followed by exposure to 2 Gy gamma irradiation and measured after 48 hrs propidium iodide staining based analysis (reference value: 21.35%); assay type: functional; conditions: time 49 hrs
[39] = tested on: HCT-116; experiment: Induction of cell cycle arrest in human HCT-116 cells assessed as accumulation of cells S phase at 1000 nM incubated for 1 hr followed by exposure to 2 Gy gamma irradiation and measured after 48 hrs propidium iodide staining based analysis (reference value: 21.35%); assay type: functional; conditions: time 49 hrs
[40] = tested on: HCT-116; experiment: Induction of cell cycle arrest in human HCT-116 cells assessed as accumulation of cells S phase at 2000 nM incubated for 1 hr followed by exposure to 2 Gy gamma irradiation and measured after 48 hrs propidium iodide staining based analysis (reference value: 21.35%); assay type: functional; conditions: time 49 hrs
[41] = tested on: NCI-H460; experiment: Antitumor activity against human NCI-H460 cells xenografted in BALB/ c nude mouse assessed as inhibition of tumor growth at 100 mg/kg, po administered once daily with 2 Gy irradiation and measured upto 7 days by vernier caliper analysis; assay type: functional, organism-based; conditions: time <= 7.0 day
[42] = tested on: A549; experiment: Antitumor activity against human A549 cells xenografted in BALB/c nude mouse assessed as tumor growth inhibition at 7.5 mg/kg, po administered once daily measured upto 26 days in presence of paclitaxel by vernier caliper analysis relative to control; assay type: functional; conditions: A549, 624 h, time <= 26 day, read-out: TGI
[43] = tested on: BT-474; experiment: Antitumor activity against human BT-474 cells xenografted in BALB/c nude mouse assessed as inhibition of tumor growth at 0.25 to 12.5 mg/kg, po measured upto 10 days in presence of liposome doxorubicin by vernier caliper analysis; assay type: functional, organism-based; conditions: dose lower […], dose upper 12.5 mg/kg, time <= 10.0 day

SMILES: CC(=O)O[C@H]1C(=O)[C@@]2(C)[C@H]([C@H](OC(=O)c3ccccc3)[C@]3(O)C[C@H](OC(=O)[C@H](O)[C@@H](NC(=O)c4ccccc4)c4ccccc4)C(C)=C1C3(C)C)[C@]1(OC(C)=O)CO[C@@H]1C[C@@H]2O
Activity [1]: inactive

IC50 [3]: 83.3 nM
IC50 [4]: 0.4 nM
half-life at 24 h [5]: 3.72 h
half-life at 24 h [6]: 11.8 h
CL/F at 24 h [7]: 62 mL/min/kg
clearance at 24 h [8]: 20.2 mL/min/kg
AUC(0-t) at 24 h [9]: 1350 ng·h/mL
AUC(0-t) at 24 h [10]: 4060 ng·h/mL
Cmax at 24 h [11]: 733 ng/mL
Cmax at 24 h [12]: 4290 ng/mL
bioavailability at 24 h [13]: 33.2%
half-life at 5 min, 1 µM [14]: 10.5 h
SMILES: Cc1cc(-c2nc[nH]n2)ccc1Nc1ncc2c(n1)n(C1CCOCC1)c(=O)n2C
inhibition at […] [2]: 96.9%
inhibition at 20 µM [15]: -0.02%

IC50 [3]: 33.3 nM
SMILES: Cc1cc(-c2cnn(C)c2)ncc1Nc1ncc2c(n1)n(C1CCOCC1)c(=O)n2C
inhibition at […] [2]: 99.4%
inhibition [16]: Dose-Dependent Effect
Activity [17]: 65.15%
Activity [18]: 60.76%
Activity [19]: 61.36%
Activity [20]: 60.62%
Activity [21]: 15.81%
Activity [22]: 15.5%
Activity [23]: 14.91%
Activity [24]: 16.46%
Activity [25]: 19.94%
Activity [26]: 23.44%
Activity [27]: 21.75%
Activity [28]: 22.92%
Activity [29]: 53.41%
Activity [30]: 45.35%
Activity [31]: 32.64%
Activity [32]: 24.76%
Activity [33]: 21.65%
Activity [34]: 30.99%
Activity [35]: 53.54%
Activity [36]: 69.21%
Activity [37]: 22.74%
Activity [38]: 25.63%
Activity [39]: 13.82%
Activity [40]: 9.03%
Activity [41]: Active
inhibition in vivo at 7.5 mg/kg [42]: 78.8%
Activity [43]: Active

IC50 [3]: 48 nM
IC50 [4]: 1 nM
half-life at 24 h [5]: 6.73 h
half-life at 24 h [6]: 4.73 h
CL/F at 24 h [7]: 22.3 mL/min/kg
clearance at 24 h [8]: 11 mL/min/kg
AUC(0-t) at 24 h [9]: 3450 ng·h/mL
AUC(0-t) at 24 h [10]: 7400 ng·h/mL
Cmax at 24 h [11]: 341 ng/mL
Cmax at 24 h [12]: 869 ng/mL
bioavailability at 24 h [13]: 46.6%
half-life at 5 min, 1 µM [14]: 2.31 h
SMILES: COc1ccc(-c2cc(C)c(Nc3ncc4c(n3)n(C3CCOCC3)c(=O)n4C)cn2)cc1OC
inhibition at […] [2]: 99.9%
Activity [41]: Active
inhibition at 20 µM [15]: 8.61%
